Results published in patent US4618622A, “Sulfonates of hydroxycoumarins” (priority 1982, dated 1986).

Assays:
[1] = system: reserpine-induced hypothermia; experiment: Antidepressant action: inhibition of reserpine-induced hypothermia (reserpine test); type: in vivo, mouse (male, Swiss strain); conditions: oral administration, 60 minutes before reserpine 2.15 mg/kg s.c.; mouse; temperature 2 hours after; read-out: Antidepressant action (mouse) ED50
Experimental: The test substances are administered orally, 60 minutes before the reserpine.

Monoaminoxidase A = target: T1, Monoaminoxidase A (Rattus norvegicus, UniProt P21396); experiment: biochemical; conditions: monoaminoxidase A, rat brain homogenate, 14C-tryptamine 0.4 μmol/liter, 37° C., 20 minutes; read-out: Monoaminoxidase inhibition IC50
T1 sequence (P21396 1-526): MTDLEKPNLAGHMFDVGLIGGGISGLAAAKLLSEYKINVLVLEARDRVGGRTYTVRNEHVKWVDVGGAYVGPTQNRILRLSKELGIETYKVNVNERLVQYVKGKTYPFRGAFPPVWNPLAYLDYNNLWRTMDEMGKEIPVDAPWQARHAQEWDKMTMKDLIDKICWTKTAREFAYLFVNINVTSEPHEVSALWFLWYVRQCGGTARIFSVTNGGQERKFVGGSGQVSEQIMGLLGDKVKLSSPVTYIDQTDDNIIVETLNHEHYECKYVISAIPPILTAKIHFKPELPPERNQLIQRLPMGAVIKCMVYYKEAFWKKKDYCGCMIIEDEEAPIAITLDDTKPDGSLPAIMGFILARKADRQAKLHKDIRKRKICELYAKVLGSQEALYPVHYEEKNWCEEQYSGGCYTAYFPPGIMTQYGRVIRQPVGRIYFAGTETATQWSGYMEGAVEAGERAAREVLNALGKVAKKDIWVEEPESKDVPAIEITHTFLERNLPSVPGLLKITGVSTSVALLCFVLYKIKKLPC
Experimental: Monoaminoxidase A is determined in dilute rat brain homogenate to which
1. various concentrations of the test substances and
2. ^14 C-tryptamine in a concentration of 0.4 μmol/liter are added. This mixture is incubated at 37° C. for 20 minutes, after which the reaction is terminated by means of aqueous 0.1N HCl, and the products are extracted with toluene scintillator (PPO+POPOP in toluene) and then determined. The blank value is determined in similar mixtures for an incubation time of t=0 minutes.
The mean inhibitory concentration (IC50) is calculated from the inhibitory values determined, in comparison with the control, at the various inhibitor concentrations, by means of a linear regression after logit-log transformation.

| IC50 (Monoaminoxidase A) | SMILES | ED50 [1] |
| --- | --- | --- |
| – | Cc1c(C)c2ccc(OS(=O)(=O)CCCCl)cc2oc1=O [Example 55, 7-Hydroxy-3,4-dimethylcoumarin 3'-chloropropanesulfonate] | 1.3 mg/kg |
| – | Cc1c(C)c2ccc(OS(C)(=O)=O)cc2oc1=O [Example 2, 7-Hydroxy-3,4-dimethylcoumarin methanesulfonate] | 5.9 mg/kg |
| 6.3 nM | Cc1cc2ccc(OS(=O)(=O)c3ccc(Cl)cc3)cc2oc1=O [Example 30, 7-Hydroxy-3-methylcoumarin 4'-chlorobenzenesulfonate] | 9 mg/kg |
| 110 nM | O=c1oc2cc(OS(=O)(=O)c3ccc(Cl)cc3)ccc2c2c1CCCC2 [Example 29, 7-Hydroxy-3,4-tetramethylenecoumarin 4'-chlorobenzenesulfonate] | – |
| 620 nM | CC(=O)Nc1ccc(S(=O)(=O)Oc2ccc3c(C)c(C)c(=O)oc3c2)cc1 [Example 15, 7-Hydroxy-3,4-dimethylcoumarin 4'-acetylaminobenzenesulfonate] | – |
| 23 nM | CCc1c(C)c2ccc(OS(=O)(=O)c3ccc(Cl)cc3)cc2oc1=O [Example 34, 3-Ethyl-7-hydroxy-4-methylcoumarin 4'-chlorobenzenesulfonate] | – |
| 67 nM | Cc1cc2ccc(OS(=O)(=O)c3ccccc3)cc2oc1=O [Example 20, 7-Hydroxy-3-methylcoumarin benzenesulfonate] | – |
| 51 nM | Cc1cc(C)c(S(=O)(=O)Oc2ccc3c(C)c(C)c(=O)oc3c2)c(C)c1 [Example 12, 7-Hydroxy-3,4-dimethylcoumarin 2',4',6'-trimethylbenzenesulfonate] | – |
| – | Cc1c(C)c2ccc(OS(=O)(=O)c3ccc(Cl)cc3)cc2oc1=O [Example 9, 7-Hydroxy-3,4-dimethylcoumarin 4'-chlorobenzenesulfonate] | 6.1 mg/kg |
| – | Cc1c(C)c2ccc(OS(=O)(=O)c3ccc(Br)cc3)cc2oc1=O [Example 11, 7-Hydroxy-3,4-dimethylcoumarin 4'-bromobenzenesulfonate] | 2.5 mg/kg |
| – | Cc1c(C)c2ccc(OS(=O)(=O)c3cccc([N+](=O)[O-])c3)cc2oc1=O [Example 57, 7-Hydroxy-3,4-dimethylcoumarin 3'-nitrobenzenesulfonate] | 1.5 mg/kg |
| – | Cc1cc(=O)oc2cc(OS(=O)(=O)c3ccccc3)ccc12 [Example 41, 7-Hydroxy-4-methylcoumarin benzenesulfonate] | 29.7 mg/kg |
| – | CNS(=O)(=O)Oc1ccc2c(C)c(C)c(=O)oc2c1 [Example 43, 7-Hydroxy-3,4-dimethylcoumarin N-methylamidosulfonate] | 1.9 mg/kg |
| – | Cc1c(C)c2ccc(OS(=O)(=O)CCl)cc2oc1=O [Example 56, 7-Hydroxy-3,4-dimethylcoumarin chloromethanesulfonate] | 3.4 mg/kg |
| – | CCCCCS(=O)(=O)Oc1ccc2c(C)c(C)c(=O)oc2c1 [Example 38, 7-Hydroxy-3,4-dimethylcoumarin pentanesulfonate] | 1.4 mg/kg |
| 27 nM | Cc1c(C)c2ccc(OS(=O)(=O)c3cc(Cl)ccc3Cl)cc2oc1=O [Example 13, 7-Hydroxy-3,4-dimethylcoumarin 2',5'-dichlorobenzenesulfonate] | – |
| 7.3 nM | CCCCS(=O)(=O)Oc1ccc2c(C)c(C)c(=O)oc2c1 [Example 26, 7-Hydroxy-3,4-dimethylcoumarin butanesulfonate] | 1.8 mg/kg |
| 160 nM | CC(C)S(=O)(=O)Oc1ccc2ccc(=O)oc2c1 [Example 45, 7-Hydroxycoumarin isopropanesulfonate] | – |
| 77 nM | Cc1c(C)c2ccc(OS(=O)(=O)Cc3ccccc3)cc2oc1=O [Example 25, 7-Hydroxy-3,4-dimethylcoumarin phenylmethanesulfonate] | – |

| IC50 (Monoaminoxidase A) | SMILES | ED50 [1] |
| --- | --- | --- |
| 14 nM | Cc1c(Cl)c(=O)oc2cc(OS(=O)(=O)C(C)C)ccc12 [Example 60, 7-Hydroxy-3-chloro-4-methylcoumarin isopropanesulfonate] | – |
| 540 nM | CCOC(=O)c1cc2ccc(OS(=O)(=O)c3ccc(Cl)cc3)cc2oc1=O [Example 50, 7-Hydroxy-3-carboethoxycoumarin 4'-chlorobenzenesulfonate] | – |
| 34 nM | CCCCCCCCS(=O)(=O)Oc1ccc2c(C)c(C)c(=O)oc2c1 [Example 27, 7-Hydroxy-3,4-dimethylcoumarin octanesulfonate] | – |
| 550 nM | O=c1oc2cc(OS(=O)(=O)c3ccccc3)ccc2c2c1CCCC2 [Example 21, 7-Hydroxy-3,4-tetramethylenecoumarin benzenesulfonate] | – |
| 67 nM | CCCc1c(C)c2ccc(OS(=O)(=O)c3ccc(Cl)cc3)cc2oc1=O [Example 37, 7-Hydroxy-4-methyl-3-propylcoumarin 4'-chlorobenzenesulfonate] | – |
| – | Cc1c(C)c2ccc(OS(=O)(=O)c3ccc4ccccc4c3)cc2oc1=O [Example 4, 7-Hydroxy-3,4-dimethylcoumarin naphthalene-2'-sulfonate] | 4 mg/kg |
| 30 nM | CCc1cc(=O)oc2cc(OS(=O)(=O)c3ccc(Cl)cc3)ccc12 [Example 31, 4-Ethyl-7-hydroxycoumarin 4'-chlorobenzenesulfonate] | – |
| – | Cc1c(C)c2ccc(OS(=O)(=O)c3ccc(F)cc3)cc2oc1=O [Example 14, 7-Hydroxy-3,4-dimethylcoumarin 4'-fluorobenzenesulfonate] | 1.4 mg/kg |
| 160 nM | Cc1c(C)c2ccc(OS(=O)(=O)c3ccc(OC(F)(F)C(F)F)cc3)cc2oc1=O [Example 8, 7-Hydroxy-3,4-dimethylcoumarin 4'-(α,α,β,β-tetrafluoroethoxy)-benzenesulfonate] | – |
| 540 nM | CCOC(=O)c1cc2ccc(OS(=O)(=O)c3ccc([N+](=O)[O-])cc3)cc2oc1=O [Example 51, 7-Hydroxy-3-carboethoxycoumarin 4'-nitrobenzenesulfonate] | – |
| – | Cc1c(C)c2ccc(OS(=O)(=O)c3ccc(C#N)cc3)cc2oc1=O [Example 18, 7-Hydroxy-3,4-dimethylcoumarin 4'-cyanobenzenesulfonate] | 3.6 mg/kg |
| 120 nM | CCc1cc(=O)oc2cc(OS(=O)(=O)c3ccccc3)ccc12 [Example 32, 4-Ethyl-7-hydroxycoumarin benzenesulfonate] | – |
| – | CCS(=O)(=O)Oc1ccc2c(C)c(C)c(=O)oc2c1 [Example 39, 7-Hydroxy-3,4-dimethylcoumarin ethanesulfonate] | 1.7 mg/kg |
| 22 nM | COC(=O)Cc1c(C)c2ccc(OS(=O)(=O)c3ccc(Br)cc3)cc2oc1=O [Example 48, 7-Hydroxy-3-carbomethoxymethyl-4-methylcoumarin 4'-bromobenzenesulfonate] | – |
| 110 nM | Cc1c(C)c2ccc(OS(=O)(=O)c3ccccc3[N+](=O)[O-])cc2oc1=O [Example 6, 7-Hydroxy-3,4-dimethylcoumarin 2'-nitrobenzenesulfonate] | – |
| 290 nM | O=c1oc2cc(OS(=O)(=O)c3ccc(Br)cc3)ccc2c2c1CCCC2 [Example 28, 7-Hydroxy-3,4-tetramethylenecoumarin 4'-bromobenzenesulfonate] | – |
| 76 nM | Cc1c(C)c2ccc(OS(=O)(=O)c3cccc4ccccc34)cc2oc1=O [Example 3, 7-Hydroxy-3,4-dimethylcoumarin naphthalene-1'-sulfonate] | – |
| 9.8 nM | Cc1cc2ccc(OS(=O)(=O)c3ccc(Br)cc3)cc2oc1=O [Example 19, 7-Hydroxy-3-methylcoumarin 4'-bromobenzenesulfonate] | – |
